The results in this text go back to patent US20130184337A1, “SODIUM ASCORBATE STIMULATION OF ELASTOGENESIS” (THE HOSPITAL FOR SICK CHILDREN, priority 2012, published 2013).

What all share (assay type): cell-based, human
Experiment [1] concerns reactive oxygen species (ROS). Description: Intracellular ROS with CM-H2DCFDA probe (fluorescence microscope, flow cytophotometry). The conditions noted are these: 100 μM, 2 hours. As to the method: Quantification of Intracellular free radicals-reactive oxygen species (ROS)—To assess the levels of ROS, quadruplicate cultures of normal skin fibroblasts were exposed to 10 μM of ROS-sensitive CM-H2DCFDA fluorescent probe (Molecular Probes, Eugene, Oreg.) for 30 minutes. This probe passively diffuses into the cell interior and only upon oxidation is a fluorescent product released that can be visualized under a fluorescent microscope or captured by flow cytophotometry when excited at 480 nm. Fibroblasts were then maintained for 30 minutes in the presence or absence of 400 μM probenecid, then incubated either for 2 or 24 hours with and without 100 μM AA or 100 μM SA. At the end of these periods the images were captured using a fluorescent microscope under identical parameters of contrast and brightness. The ROS production was also assessed by flow cytophotometry (λ excitation 480 nm; λ emission 520 nm), using FACSCalibur, Beckton Dickinson Instrument.

Experiment [2] relates to explants of dermal stretch marks. Description: Organ culture of skin explants (Movat pentachrome morphometry, insoluble elastin). The conditions noted are these: 200 μM, 10-day-long daily treatment. As for the experimental part: The parallel quadruplicate explants from each experimental group were additionally maintained in the presence 2 μCi of [3H]-valine/ml and then subjected to the assay of insoluble elastin. The parallel explants from each experimental groups were also evaluated after pentachrome Movat's staining which allows for clear marking of elastic fibers. In each experimental group, 50 sections derived from quadruplicate explants were analyzed.

A further experiment deals with insulin receptor. Description: Insulin receptor phosphorylation (immuno-precipitation, anti-phospho-tyrosine Western blot). Conditions: 100 μM SA, basic or insulin-induced. As to the method: At the end of each experiment cells were submerged in the lysis buffer containing a broad-range phosphatase inhibitor. The polyclonal antibodies recognizing either the β subunits of the IGF-IR or the β subunit of the insulin receptor were immobilized on separate sets of the IgG-bearing magnetic beads (Invitrogen Canada Inc, Burlington, ON) and then incubated for 1 hour with the aliquots of the cell lysates containing 400 μg of protein as described in the manufacturer protocol. The beads bearing the resulting immuno-precipitation products were re-suspended in sample buffer and the released proteins were resolved with SDS-PAGE and subjected to Western blotting with a monoclonal anti-p-Tyr (PY99) antibody from Santa Cruz Biotechnology Inc. (Santa Cruz, Calif.) and then with HRP-conjugated goat anti-mouse secondary antibody.
(In general: In western blotting, separated proteins are transferred to a membrane and probed.)

Experiment [3] deals with fat tissue-derived fibroblasts. Description: Elastin deposition (immuno-staining morphometry, insoluble elastin assay) in fat-derived fibroblasts. Conditions: 50-200 μM, on average, p<0.01. As to the method: Cell Cultures-Fibroblasts initially grew out from the explants of these full thickness skin biopsies and were maintained. The primary cultures of fat-derived fibroblasts obtained from Thermogenesis (Rancho Cordova, Calif.) were also tested. In all described experiments, 2-4 passages of both kinds of fibroblasts were used. In experiments aimed at assessing ECM production, cells were initially plated at a concentration of 100,000 cells/dish. […] Immuno-staining-All cultures maintained in the presence and absence of indicated reagents were either fixed in cold 100% methanol at -20° C. (for detection of elastin) or in 4% paraformaldehyde at room temperature (for detection of collagen I). The multiple parallel cultures were then incubated with 10 μg/ml of polyclonal antibody to tropoelastin (Elastin Products, Owensville, Mich.), or polyclonal antibody to collagen type I (Chemicon, Temecula, Calif.). […] All of the cultures were then examined with a Nikon Eclipse […] microscope attached to a cooled CCD camera (QImaging, Retiga EX) and analyzed by the computer-generated morphometric analysis system (Image-Pro Plus software, Media Cybernetics, Silver Springs, Md.) as previously described. Quantitative Assays of Insoluble Elastin-Fibroblasts were grown to confluency in 35-mm culture dishes (100,000 cells/dish). […]

Another experiment relates to tropoelastin mRNA. Description: RT-PCR of tropoelastin mRNA normalized to GAPDH mRNA. Conditions: 50-200 μM, 18 hours, medium with 5% FBS. As for the experimental part: One-Step RT-PCR Analysis—The confluent cultures of skin fibroblasts were treated with or without the reagents of interest for different periods of time as indicated in the figure legend. Total RNA was extracted using the RNeasy Mini Kit, and the one-step RT-PCR reactions were set up with the RT-PCR Kit, according to the manufacturer's (Qiagen, Mississauga, ON) instructions. The amounts of tropoelastin mRNA were always normalized to the amount of GAPDH mRNA.

The subject of experiment [4] is normal dermal fibroblasts. Description: Elastic fiber deposition (immuno-staining morphometry, [3H]-valine insoluble elastin) in monolayer cultures. As for the experimental part: Cell Cultures—Fibroblasts initially grew out from the explants of these full thickness skin biopsies and were maintained. The primary cultures of fat-derived fibroblasts obtained from Thermogenesis (Rancho Cordova, Calif.) were also tested. In all described experiments, 2-4 passages of both kinds of fibroblasts were used. In experiments aimed at assessing ECM production, cells were initially plated at a concentration of 100,000 cells/dish.
Immuno-staining—All cultures maintained in the presence and absence of indicated reagents were either fixed in cold 100% methanol at −20° C. (for detection of elastin) or in 4% paraformaldehyde at room temperature (for detection of collagen I). The multiple parallel cultures were then incubated with 10 μg/ml of polyclonal antibody to tropoelastin (Elastin Products, Owensville, Mich.), or polyclonal antibody to collagen type I (Chemicon, Temecula, Calif.). Cultures were then incubated with the respective fluorescein-conjugated goat anti-rabbit, goat anti-mouse, or rabbit anti-goat secondary antibodies. Nuclei were counterstained with propidium iodide (Sigma, Sigma, St. Louis, Mo.). All of the cultures were then examined with a Nikon Eclipse E1000 microscope attached to a cooled CCD camera (QImaging, Retiga EX) and analyzed by the computer-generated morphometric analysis system (Image-Pro Plus software, Media Cybernetics, Silver Springs, Md.) as previously described.
Quantitative Assays of Insoluble Elastin—Fibroblasts were grown to confluency in 35-mm culture dishes (100,000 cells/dish). Next, 2 μCi of [3H]-valine/ml (Amersham Biosciences Ltd. Oakville, Canada), were added to each dish along with or without the indicated treatments. At the end of each experiment, the levels of metabolically labeled NaOH-insoluble elastin present in individual cultures were assayed and normalized per their DNA content.

The test system of experiment [5] is fibroblasts derived from dermal stretch marks. Description: Collagen and elastic fiber deposition in stretch-mark fibroblast cultures. The conditions noted are these: 200 μM, 24 hour-old cultures. As for the experimental part: Cell Cultures-Fibroblasts initially grew out from the explants of these full thickness skin biopsies and were maintained. The primary cultures of fat-derived fibroblasts obtained from Thermogenesis (Rancho Cordova, Calif.) were also tested. In all described experiments, 2-4 passages of both kinds of fibroblasts were used. In experiments aimed at assessing ECM production, cells were initially plated at a concentration of 100,000 cells/dish. […] Immuno-staining-All cultures maintained in the presence and absence of indicated reagents were either fixed in cold 100% methanol at -20° C. (for detection of elastin) or in 4% paraformaldehyde at room temperature (for detection of collagen I). The multiple parallel cultures were then incubated with 10 μg/ml of polyclonal antibody to tropoelastin (Elastin Products, Owensville, Mich.), or polyclonal antibody to collagen type I (Chemicon, Temecula, Calif.). Cultures were then incubated with the respective fluorescein-conjugated goat anti-rabbit, goat anti-mouse, or rabbit anti-goat secondary antibodies. Nuclei were counterstained with propidium iodide (Sigma, Sigma, St. Louis, Mo.). All of the cultures were then examined with a Nikon Eclipse […] microscope attached to a cooled CCD camera (QImaging, Retiga EX) and analyzed by the computer-generated morphometric analysis system (Image-Pro Plus software, Media Cybernetics, Silver Springs, Md.) as previously described. Quantitative Assays of Insoluble Elastin-Fibroblasts were grown to confluency in 35-mm culture dishes (100,000 cells/dish). Next, 2 μCi of [3H]-valine/ml (Amersham Biosciences Ltd. Oakville, Canada), were added to each dish along with or without the indicated treatments. At the end of each experiment, the levels of metabolically labeled NaOH-insoluble elastin present in individual cultures were assayed and normalized per their DNA content.

Entries after “also recorded” stand apart in the source; their conditions may differ.

`O=C1O[C@H]([C@@H](O)CO)C([O-])=C1O.[Na+]` [SA, (+)-sodium L-ascorbate]: the “levels of intracellular ROS” value in experiment [1] is given as “significantly lower levels of ROS”. Also, in experiment [2], the elastogenesis result is recorded as “restored the practically non-existent elastogenesis”. The “phosphorylation of insulin receptor” value in the experiment with insulin receptor was “did not induce heightened phosphorylation; also recorded: does not enhance basic or insulin-induced phosphorylation of insulin receptor”. Also, the “increase in elastin deposition” value in experiment [3] is 22%+/−4%. The “levels of tropoelastin-encoding mRNA” value in the experiment on tropoelastin mRNA is “significant and dose-dependent up-regulation”. In addition, in experiment [4] (50 μM to 200 μM, 24-hour-old cultures, 5% FBS), the “production of immuno-detectable elastic fibers” value is listed as “significantly stimulated production of immuno-detectable elastic fibers; also recorded: upregulate production of elastic fibers”. In experiment [4] (100 μM SA added to 50 ng/ml IGF-1), the “elastin deposition, SA added to IGF-1” value is “significantly up-regulated the levels of elastin deposition”. The “elastogenesis, SA added to dexamethasone” value in experiment [4] (100 μM SA added to 1 μM dexamethasone) is “did not further enhance the increase in elastogenesis”. The “elastogenesis / net deposition of new elastic fibers” value in experiment [4] (100 μM alone, 24 hours, 5% FBS) is given as “remarkable up-regulation in the net deposition of new elastic fibers; also recorded: similarly strong elastogenic effects as treatment with 50 ng/ml of exogenous IGF-1; also recorded: upregulates elastogenesis only in cultures of dermal fibroblasts maintained in media containing 5% FBS”. Moreover, in experiment [4] (400 μM, 24-hour-old cultures, 5% FBS), the “deposition of elastic fibers” value is “did not further stimulate deposition of elastic fibers”. In experiment [4] (800 μM, 24-hour-old cultures, 5% FBS), the elastogenesis result is listed as “clear inhibition of elastogenesis; also recorded: inhibits elastogenesis”. For the same compound, the “elastogenic effects in serum-free medium” value in experiment [4] (SA, 18-24 hour-old cultures, serum-free medium) was “could not be observed in cultures maintained in serum-free medium”. For the same compound, in experiment [5], the “production of collagen fibers” value is listed as “significantly up-regulated” and the “production of elastic fibers / elastogenesis” value is reported as “significantly up-regulated”.
